Columns and labels:
PDE4H (HARBS) = conditions: references [24-26]; cited from earlier work
[1] = biological target: T1, high affinity rolipram binding sites (HARBS, PDE4H); test: Binding to particulate HARBS of whole brain, displacement of [3H]-rolipram (Assay II); design: species or system guinea pig; conditions: 2 nM [3H]-rolipram, guinea pig whole brain particulates, FIG. 2; read-out: IC50 for displacement of [3H]-rolipram from HARBS
T1 construct: IC50 for displacement of [3H]-rolipram from HARBS; other: 300 μM, guinea pig, preliminary experimental data; other: guinea pig whole brain particulates; over 300 μM not available due
Method: The binding experiments are carried on basis of the methods of Schneider et al. and Zhao et al. with a small modification. Under a protocol approved by the Animal Care and Use Committee of Taipei Medical University, five male guinea pigs (Hartley), weighing 500-600 g, were anesthetized. The whole brains taken therefrom were homogenized with in 10 volumes of cold medium (pH 6.5) containing 20 mM Bis-Tris, 2 mM benzamidine, 2 mM EDTA, 50 mM sodium chloride, 0.1 mM phenylmethanesulfonyl fluoride (PMSF), and 1 mM dithiothreitol. At 4° C., the homogenate was centrifuged at 170 g for 15 min for removing blood vessels and connective tissues, and the supernatant thereof was then re-centrifuged at 40,000 g for 30 min for separating the particulates from the cytosol of cells.
After incubation, the reaction was stopped by transferring the reaction vessel to a bath of crashed ice. Then the reaction mixture was filtered through a punched glass fiber filter (Whatman GF/B) placed in a mini funnel, which was adopted to a 1.5 ml of Eppendorff's tube for collecting the filtrate in the mini centrifuge at 1000 rpm for 10 seconds. By the same way (centrifugation), it is further washed with 0.3 ml reaction buffer each for three times. The Whatman GF/B filter was mixed with 2 ml of cocktail and counted by the β-scintillation counter (Backman, Fullerton, Calif., USA) for counting the radioactivity thereof.

PDE4 = system: T2, PDE4; test: Inhibition of cyclic nucleotide PDE activity (Assay I), PDE4, incl. Lineweaver-Burk analysis; format: biochemical, guinea pig; conditions: mean ± S.E.M. (n); read-out: IC50 on phosphodiesterase isozyme 4
T2 construct: IC50 on phosphodiesterase isozyme 4; other: mean ± S.E.M. (n)
Method: (§1) Under a protocol approved by the Animal Care and Use Committee of Taipei Medical University, five male guinea pigs (Hartley), weighing 500-600 g, were sacrificed. The lungs (15 g) or hearts (4 g) taken therefrom were chopped into small pieces and homogenized with a glass/teflon homogenizer (Glas-Col, Terre Haute, Ind., USA) in 10 volumes of cold medium (pH 6.5) containing 20 mM Bis-Tris, 2 mM benzamidine, 2 mM EDTA, 50 mM sodium chloride, 0.1 mM phenylmethanesulfonyl fluoride (PMSF), and 1 mM dithiothreitol. At 4° C., the homogenate was centrifuged at 170 g for 15 min, and the supernatant thereof was then re-centrifuged at 40,000 g for 30 min. […] The column was washed with two bed volumes of homogenate buffer to remove unbound material, where the resin beads therein will bind with proteins, such as PDE proteins. Proteins bound to the Q-sepharose beads were eluted with various concentrations (0.23, 0.34, 0.44, 0.69, and 1.00 M) of NaCl dissolved in homogenate buffer (for each concentration, 40-50 mL elution buffer were applied) at a flow rate of 30 ml/h. Fractions (3 ml each) were collected, and ethylene glycol (EG) was added thereto until a final concentration of 30% (v/v). And then the samples were frozen at −70° C.
(§2) The activities of PDE1-5 in the homogenate were measured with a two-step procedure according to the method of Thompson and Appleman, using cAMP with [^3H]-cAMP or cGMP with [^3 H]-cGMP as substrates. The PDE enzyme prepared (25 μl) with 10 μl inhibitor or the solvents therefor was incubated for 30 min at 37° C. in a total assay buffer, where the final volume of the assay is amounted to 100 μl. In accordance with the features of the PDE isozymes, the assay buffer contains 50 mM Tris/HCl (pH 7.4), 3 mM MgCl2, 1 mM dithiothreitol, and 0.05% BSA, and optionally contains 1 uM cAMP with 0.2 μCi [^3H]-cAMP as a substrate alone or in the presence of 0.1 unit calmodulin with 10 μM CaCl2, or 5 μM cGMP, and 1 μM cGMP with 0.2 μCi [^3H]-cGMP as another substrate alone or in the presence of 0.1 unit calmodulin with 10 μM CaCl2.
(§3) The PDE enzyme and the inhibitors (or their solvent) therefor were mixed and incubated on ice for 30 min previously, and then mixed with the assay buffer. The assay was initiated by transferring the mixture to a water bath at 37° C. Following the other 30 min incubation, the reaction was stopped by transferring the reaction vessel to a bath of boiling water for 3 min. After cooling on ice, 20 μl of the 1 mg/ml of Crotalus atrox venom was added to the reaction mixture, and the mixture was incubated at 37° C. for 10 min. The uncatalyzed substrates, such as cAMP, [^3H]-cAMP, cGMP, or [^3H]-cGMP were removed by the addition of 500 μl of a 1-in-1 Tris-HCl (40 mM) buffer suspension of Dowex resin (1×8-200) with incubation on ice for 30 min, since the bindings of the cyclic nucleotides and the resin. Each tube was then centrifuged for 2 min at 6000 rpm, and 100 μl of the supernatant was removed and counted by a β-counter for calculating the enzyme (PDEs) activity.
The dissociation constant of inhibitor binding (Ki) value was determined from the equation of apparent Km as a function of the inhibitor concentration (insert in A and B, respectively). The slope of the equation is equal to the value of […] (where KM is Michaelis constant). The amounts of the total proteins are calculated based on the analytical method reported by Bradford. In FIGS. 1A and 1B, all enzyme activities are shown as nmole of substrate per mg of proteins per minute (nmole/mg/min) hydrolyzed.
The IC50 values of flavonoids and various reference drugs were calculated using non-linear regression analysis by the software SigmaPlot 7.0 (Sigma Chemical, St. Louis Mo., USA).

PDE2 = biological target: T3, PDE2 (Cavia porcellus, UniProt A0A286XUV5); test: Inhibition of cyclic nucleotide PDE activity (Assay I), PDE2; format: biochemical, guinea pig; conditions: mean ± S.E.M. (n); read-out: IC50 on phosphodiesterase isozyme 2
T3 sequence (A0A286XUV5 22-936): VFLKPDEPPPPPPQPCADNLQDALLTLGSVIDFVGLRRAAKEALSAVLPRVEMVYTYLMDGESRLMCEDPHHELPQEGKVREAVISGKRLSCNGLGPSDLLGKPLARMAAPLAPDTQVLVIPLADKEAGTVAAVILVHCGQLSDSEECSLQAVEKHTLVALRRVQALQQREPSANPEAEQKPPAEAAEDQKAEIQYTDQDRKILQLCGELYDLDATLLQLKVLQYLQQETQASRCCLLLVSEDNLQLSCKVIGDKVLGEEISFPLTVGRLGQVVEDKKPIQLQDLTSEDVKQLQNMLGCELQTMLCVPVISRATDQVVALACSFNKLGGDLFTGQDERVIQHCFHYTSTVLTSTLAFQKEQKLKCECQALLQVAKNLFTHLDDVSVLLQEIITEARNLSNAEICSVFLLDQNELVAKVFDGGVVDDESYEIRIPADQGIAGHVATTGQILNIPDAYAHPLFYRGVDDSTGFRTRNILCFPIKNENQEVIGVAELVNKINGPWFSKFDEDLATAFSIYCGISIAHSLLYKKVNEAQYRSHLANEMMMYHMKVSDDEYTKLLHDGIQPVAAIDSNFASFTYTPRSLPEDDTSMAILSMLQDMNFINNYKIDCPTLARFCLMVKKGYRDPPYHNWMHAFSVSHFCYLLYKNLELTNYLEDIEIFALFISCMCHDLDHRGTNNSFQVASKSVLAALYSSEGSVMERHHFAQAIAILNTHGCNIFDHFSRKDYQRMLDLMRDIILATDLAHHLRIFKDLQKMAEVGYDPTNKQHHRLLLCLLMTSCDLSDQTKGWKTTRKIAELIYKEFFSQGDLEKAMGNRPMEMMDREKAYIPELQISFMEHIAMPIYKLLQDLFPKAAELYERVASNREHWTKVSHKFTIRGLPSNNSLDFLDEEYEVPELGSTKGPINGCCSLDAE
Method: as §1, §2, §3
(§4) The IC50 values of flavonoids and various reference drugs were calculated using non-linear regression analysis by the software SigmaPlot 7.0 (Sigma Chemical, St. Louis Mo., USA). All values are shown as the mean±S.E.M. Differences among values, which are equal or greater to three groups, were statistically calculated by one-way analysis of variance (ANOVA), and then determined by the least significant difference (LSD). The difference between two values, however, was determined by use of Student's unpaired t-test. Differences were considered statistically significant if the P-value was less than 0.05.

PDE3 = test: Inhibition of cyclic nucleotide PDE activity (Assay I), PDE3; format: biochemical, guinea pig; conditions: mean ± S.E.M. (n); read-out: IC50 on phosphodiesterase isozyme 3
Method: as §1, §2, §3, §4

PDE1 = test: Inhibition of cyclic nucleotide PDE activity (Assay I), PDE1; format: biochemical, guinea pig; conditions: mean ± S.E.M. (n); read-out: IC50 on phosphodiesterase isozyme 1
Method: Under a protocol approved by the Animal Care and Use Committee of Taipei Medical University, five male guinea pigs (Hartley), weighing 500-600 g, were sacrificed. The lungs (15 g) or hearts (4 g) taken therefrom were chopped into small pieces and homogenized with a glass/teflon homogenizer (Glas-Col, Terre Haute, Ind., USA) in 10 volumes of cold medium (pH 6.5) containing 20 mM Bis-Tris, 2 mM benzamidine, 2 mM EDTA, 50 mM sodium chloride, 0.1 mM phenylmethanesulfonyl fluoride (PMSF), and 1 mM dithiothreitol. At 4° C., the homogenate was centrifuged at 170 g for 15 min, and the supernatant thereof was then re-centrifuged at 40,000 g for 30 min. The final supernatant fraction was filtered through the 0.22 μm filter and applied to a Q-sepharose fast flow column (2.2×28 cm), which is pre-washed and pre-equilibrated in homogenization buffer. The column was washed with two bed volumes of homogenate buffer to remove unbound material, where the resin beads therein will bind with proteins, such as PDE proteins. Proteins bound to the Q-sepharose beads were eluted with various concentrations (0.23, 0.34, 0.44, 0.69, and 1.00 M) of NaCl dissolved in homogenate buffer (for each concentration, 40-50 mL elution buffer were applied) at a flow rate of 30 ml/h. Fractions (3 ml each) were collected, and ethylene glycol (EG) was added thereto until a final concentration of 30% (v/v). And then the samples were frozen at −70° C. Under these conditions, the enzyme activity was stable for at least 3 months.
In order to eliminate possible contamination of PDE5 by PDE1, the above-collected fractions with enzyme activity was further purified on a calmodulin-agarose column. The column (1.6 cm×4 cm) was pre-equilibrated by a buffer A, which contains 20 mM Bis-tris, 1 mM dithiothreitol, 2 mM benzamidine, 50 mM NaCl, 3 mMMgCl2, 0.1 mM CaCl2, and 0.1 mM PMSF, pH 6.5. The sample (the mixture of PDE5 and PDE1), being purified by the above-mentioned column, with the CaCl2 concentration thereof adjusted to at least 2 mM previously, was loaded and allowed to be absorbed on the gel for 30 min. Then, the PDE isozymes were eluted by stepwise elution using 20 ml of buffer A with 1 M NaCl followed by 20 ml of buffer A with 1 M NaCl and with 1 mM EGTA. PDE5 was collected first followed by PDE1.
as §2, with “CaCl2. In assay of enzyme inhibition, the assay mixture contained with the inhibitors at various concentrations of flavonoids in the Table 1 or the selective PDE1-5 inhibitors as reference drugs. For example, the selective PDE1-5 inhibitors are vinpocetin [30], EHNA [31], milrinone, Ro 20-1724 [33], and zaprinast, respectively.” for “CaCl2.”
The PDE enzyme and the inhibitors (or their solvent) therefor were mixed and incubated on ice for 30 min previously, and then mixed with the assay buffer. The assay was initiated by transferring the mixture to a water bath at 37° C. Following the other 30 min incubation, the reaction was stopped by transferring the reaction vessel to a bath of boiling water for 3 min. After cooling on ice, 20 μl of the 1 mg/ml of Crotalus atrox venom was added to the reaction mixture, and the mixture was incubated at 37° C. for 10 min. […]

In the case of `O=C(Nc1c(Cl)cncc1Cl)c1ccc(OC(F)F)c(OCC2CC2)c1` [roflumilast], the PDE4H/PDE4L ratio (PDE4H (HARBS)) is given as 3.
`COc1c(-c2ccc(OC(C)=O)c(OC(C)=O)c2)oc2cc(OC(C)=O)cc(OC(C)=O)c2c1=O` [QMPA, Quercetin 3-O-methyl peracetate] showed an IC50 [1] of 8.7 µM.
Compound `CCCCOc1cc(CC2CNC(=O)N2)ccc1OC` (centres unmarked) [Ro 20-1724, reference compound] has an IC50 (PDE4) of 11.4 ± 1.6 µM and an IC50 [1] of 0.0673 µM.
With `CCCCCC[C@@H]([C@@H](C)O)n1cnc2c(N)ncnc21` (racemic) [EHNA, erythro-9-(2-hydroxy-3-nonyl)adenine, reference compound] the IC50 (PDE2) was 4.4 ± 1 µM.
In the case of `COc1ccc([C@]2(C#N)CC[C@@H](C(=O)O)CC2)cc1OC1CCCC1` [cilomilast], the PDE4H/PDE4L ratio (PDE4H (HARBS)) is listed as “about 1”.
With `Cc1[nH]c(=O)c(C#N)cc1-c1ccncc1` [milrinone, reference compound] the IC50 (PDE3) was 2.4 ± 0.5 µM.
Work on `COc1ccc(C2CC(=O)c3c(OC(C)=O)cc(OC(C)=O)cc3O2)cc1OC(C)=O` (centres unmarked) [HTA, hesperetin triacetate] yielded an IC50 [1] of over 300 µM.
In the case of `CCOC(=O)C1=C[C@]2(CC)CCCN3CCc4c(n1c1ccccc41)[C@@H]32` [vinpocetine, reference compound], the IC50 (PDE1) is reported as 123 ± 44.9 µM.
`COc1ccc(-c2cc(=O)c3c(O)cc(O)cc3o2)cc1O` [Diosmetin] gave an IC50 (PDE1) of 14.4 ± 6.2 µM and an IC50 (PDE3) of over 100 µM.
